Columns and labels:
Assay type in all cases: in vivo
Alopecurus myosuroides = assay: Pre-emergence herbicidal effect; settings: Dosage 320 g/ha, scored visually after 3 weeks
Procedure, shortened: (§1)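 Pre-emergence soil-surface application of compound as WP or EC in water (600 to 800 L/ha, 0.2% wetting agent) to freshly sown, soil-covered seeds in sandy loam. After 3 weeks under greenhouse conditions, percent activity rated by eye versus untreated plants, from 0% (no effect) to 100% (death).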

Amaranthus retroflexus [1] = assay: Pre-emergence herbicidal effect; settings: scored visually after 3 weeks
Procedure, shortened: as §1

Avena fatua = assay: Pre-emergence herbicidal effect; settings: Dosage 320 g/ha, scored visually after 3 weeks
Procedure, shortened: as §1

Echinochloa crus-galli [2] = assay: Pre-emergence herbicidal effect; settings: Dosage 320 g/ha, scored visually after 3 weeks
Procedure, shortened: as §1

Ipomoea purpurea [3] = assay: Pre-emergence herbicidal effect; settings: scored visually after 3 weeks
Procedure, shortened: as §1

Lolium multiflorum [4] = assay: Pre-emergence herbicidal effect; settings: Dosage 320 g/ha, scored visually after 3 weeks
Procedure, shortened: as §1

Matricaria inodora [5] = assay: Pre-emergence herbicidal effect; settings: scored visually after 3 weeks
Procedure, shortened: as §1

Polygonum convolvulus [6] = assay: Pre-emergence herbicidal effect; settings: scored visually after 3 weeks
Procedure, shortened: as §1

Setaria viridis = assay: Pre-emergence herbicidal effect; settings: scored visually after 3 weeks
Procedure, shortened: as §1

Stellaria media [7] = assay: Pre-emergence herbicidal effect; settings: scored visually after 3 weeks
Procedure, shortened: as §1

Veronica persica [8] = assay: Pre-emergence herbicidal effect; settings: scored visually after 3 weeks
Procedure, shortened: as §1

Viola tricolor [9] = assay: Pre-emergence herbicidal effect; settings: scored visually after 3 weeks
Procedure, shortened: as §1

Amaranthus retroflexus [10] = assay: Post-emergence herbicidal effect; settings: assessed visually after about 3 weeks vs untreated controls
Procedure, shortened: (§2)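 Sow in sandy loam; grow in greenhouse 2–3 wk; spray one-leaf plants with WP or EC suspension/emulsion (600–800 L/ha water, 0.2% wetter); hold ~3 wk under optimal conditions; rate visually vs untreated (0–100%).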

Echinochloa crus-galli [11] = assay: Post-emergence herbicidal effect; settings: 320 g/ha, assessed visually after about 3 weeks vs untreated controls
Procedure, shortened: as §2

Ipomoea purpurea [12] = assay: Post-emergence herbicidal effect; settings: assessed visually after about 3 weeks vs untreated controls
Procedure, shortened: as §2

Lolium multiflorum [13] = assay: Post-emergence herbicidal effect; settings: 320 g/ha, assessed visually after about 3 weeks vs untreated controls
Procedure, shortened: as §2

Matricaria inodora [14] = assay: Post-emergence herbicidal effect; settings: assessed visually after about 3 weeks vs untreated controls
Procedure, shortened: as §2

Polygonum convolvulus [15] = assay: Post-emergence herbicidal effect; settings: 320 g/ha, assessed visually after about 3 weeks vs untreated controls
Procedure, shortened: as §2

Stellaria media [16] = assay: Post-emergence herbicidal effect; settings: 320 g/ha, assessed visually after about 3 weeks vs untreated controls
Procedure, shortened: as §2

Veronica persica [17] = assay: Post-emergence herbicidal effect; settings: assessed visually after about 3 weeks vs untreated controls
Procedure, shortened: as §2

Viola tricolor [18] = assay: Post-emergence herbicidal effect; settings: assessed visually after about 3 weeks vs untreated controls
Procedure, shortened: as §2

Abutilon theophrasti [19] = assay: Pre-emergence herbicidal effect; settings: Dosage 320 g/ha, scored visually after 3 weeks
Procedure, shortened: as §1

Abutilon theophrasti [20] = assay: Post-emergence herbicidal effect; settings: 320 g/ha, assessed visually after about 3 weeks vs untreated controls
Procedure, shortened: as §2

Compound: CS(=O)(=O)c1cnc(NC2CCCc3sccc32)nc1N (racemic) [compound 23]
- ALOMY pre-emergence efficacy (herbicidal activity) (Alopecurus myosuroides): 80%
- AMARE pre-emergence efficacy (herbicidal activity) (Amaranthus retroflexus [1]; Dosage 80 g/ha): 100%
- AMARE pre-emergence efficacy (herbicidal activity) (Amaranthus retroflexus [1]; Dosage 320 g/ha): 100%
- AVEFA pre-emergence efficacy (herbicidal activity) (Avena fatua): 90%
- ECHCG pre-emergence efficacy (herbicidal activity) (Echinochloa crus-galli [2]): 100%
- PHBPU pre-emergence efficacy (herbicidal activity) (Ipomoea purpurea [3]; Dosage 320 g/ha): 100%
- LOLMU pre-emergence efficacy (herbicidal activity) (Lolium multiflorum [4]): 100%
- MATIN pre-emergence efficacy (herbicidal activity) (Matricaria inodora [5]; Dosage 80 g/ha): 100%
- MATIN pre-emergence efficacy (herbicidal activity) (Matricaria inodora [5]; Dosage 320 g/ha): 100%
- POLCO pre-emergence efficacy (herbicidal activity) (Polygonum convolvulus [6]; Dosage 80 g/ha): 100%
- POLCO pre-emergence efficacy (herbicidal activity) (Polygonum convolvulus [6]; Dosage 320 g/ha): 100%
- SETVI pre-emergence efficacy (herbicidal activity) (Setaria viridis; Dosage 320 g/ha): 100%
- STEME pre-emergence efficacy (herbicidal activity) (Stellaria media [7]; Dosage 80 g/ha): 100%
- STEME pre-emergence efficacy (herbicidal activity) (Stellaria media [7]; Dosage 320 g/ha): 100%
- VERPE pre-emergence efficacy (herbicidal activity) (Veronica persica [8]; Dosage 80 g/ha): 100%
- VERPE pre-emergence efficacy (herbicidal activity) (Veronica persica [8]; Dosage 320 g/ha): 100%
- VIOTR pre-emergence efficacy (herbicidal activity) (Viola tricolor [9]; Dosage 80 g/ha): 100%
- VIOTR pre-emergence efficacy (herbicidal activity) (Viola tricolor [9]; Dosage 320 g/ha): 100%
- post-emergence efficacy AMARE (Amaranthus retroflexus [10]; 80 g/ha): 80%
- post-emergence efficacy AMARE (Amaranthus retroflexus [10]; 320 g/ha): 80%
- post-emergence efficacy ECHCG (Echinochloa crus-galli [11]): 80%
- post-emergence efficacy PHBPU (Ipomoea purpurea [12]; 80 g/ha): 80%
- post-emergence efficacy PHBPU (Ipomoea purpurea [12]; 320 g/ha): 80%
- post-emergence efficacy LOLMU (Lolium multiflorum [13]): 80%
- post-emergence efficacy MATIN (Matricaria inodora [14]; 80 g/ha): 80%
- post-emergence efficacy MATIN (Matricaria inodora [14]; 320 g/ha): 100%
- post-emergence efficacy POLCO (Polygonum convolvulus [15]): 80%
- post-emergence efficacy STEME (Stellaria media [16]): 90%
- post-emergence efficacy VERPE (Veronica persica [17]; 80 g/ha): 90%
- post-emergence efficacy VERPE (Veronica persica [17]; 320 g/ha): 90%
- post-emergence efficacy VIOTR (Viola tricolor [18]; 80 g/ha): 80%
- post-emergence efficacy VIOTR (Viola tricolor [18]; 320 g/ha): 100%

Compound: Cc1cc2c(s1)CCCC2Nc1nc(N)c(-c2cccc(F)c2)c(C(F)F)n1 (racemic) [compound 302]
- ABUTH pre-emergence efficacy (herbicidal activity) (Abutilon theophrasti [19]): 80%
- ALOMY pre-emergence efficacy (herbicidal activity) (Alopecurus myosuroides): 70%
- AMARE pre-emergence efficacy (herbicidal activity) (Amaranthus retroflexus [1]; Dosage 80 g/ha): 100%
- AMARE pre-emergence efficacy (herbicidal activity) (Amaranthus retroflexus [1]; Dosage 320 g/ha): 100%
- ECHCG pre-emergence efficacy (herbicidal activity) (Echinochloa crus-galli [2]): 100%
- PHBPU pre-emergence efficacy (herbicidal activity) (Ipomoea purpurea [3]; Dosage 80 g/ha): 60%
- PHBPU pre-emergence efficacy (herbicidal activity) (Ipomoea purpurea [3]; Dosage 320 g/ha): 80%
- MATIN pre-emergence efficacy (herbicidal activity) (Matricaria inodora [5]; Dosage 80 g/ha): 90%
- MATIN pre-emergence efficacy (herbicidal activity) (Matricaria inodora [5]; Dosage 320 g/ha): 100%
- POLCO pre-emergence efficacy (herbicidal activity) (Polygonum convolvulus [6]; Dosage 80 g/ha): 70%
- POLCO pre-emergence efficacy (herbicidal activity) (Polygonum convolvulus [6]; Dosage 320 g/ha): 100%
- SETVI pre-emergence efficacy (herbicidal activity) (Setaria viridis; Dosage 80 g/ha): 70%
- SETVI pre-emergence efficacy (herbicidal activity) (Setaria viridis; Dosage 320 g/ha): 100%
- STEME pre-emergence efficacy (herbicidal activity) (Stellaria media [7]; Dosage 80 g/ha): 100%
- STEME pre-emergence efficacy (herbicidal activity) (Stellaria media [7]; Dosage 320 g/ha): 100%
- post-emergence efficacy ABUTH (Abutilon theophrasti [20]): 60%
- post-emergence efficacy STEME (Stellaria media [16]): 80%
- post-emergence efficacy VIOTR (Viola tricolor [18]; 80 g/ha): 90%
- post-emergence efficacy VIOTR (Viola tricolor [18]; 320 g/ha): 90%

Compound: CCOC(=O)c1cnc(NC2CCCc3sc(C)cc32)nc1C (racemic) [compound 240]
- ABUTH pre-emergence efficacy (herbicidal activity) (Abutilon theophrasti [19]): 70%
- AMARE pre-emergence efficacy (herbicidal activity) (Amaranthus retroflexus [1]; Dosage 320 g/ha): 80%
- PHBPU pre-emergence efficacy (herbicidal activity) (Ipomoea purpurea [3]; Dosage 320 g/ha): 10%
- LOLMU pre-emergence efficacy (herbicidal activity) (Lolium multiflorum [4]): 60%
- MATIN pre-emergence efficacy (herbicidal activity) (Matricaria inodora [5]; Dosage 80 g/ha): 90%
- MATIN pre-emergence efficacy (herbicidal activity) (Matricaria inodora [5]; Dosage 320 g/ha): 100%
- POLCO pre-emergence efficacy (herbicidal activity) (Polygonum convolvulus [6]; Dosage 80 g/ha): 70%
- POLCO pre-emergence efficacy (herbicidal activity) (Polygonum convolvulus [6]; Dosage 320 g/ha): 70%
- SETVI pre-emergence efficacy (herbicidal activity) (Setaria viridis; Dosage 80 g/ha): 90%
- SETVI pre-emergence efficacy (herbicidal activity) (Setaria viridis; Dosage 320 g/ha): 100%
- STEME pre-emergence efficacy (herbicidal activity) (Stellaria media [7]; Dosage 80 g/ha): 100%
- STEME pre-emergence efficacy (herbicidal activity) (Stellaria media [7]; Dosage 320 g/ha): 100%
- VERPE pre-emergence efficacy (herbicidal activity) (Veronica persica [8]; Dosage 80 g/ha): 100%
- VERPE pre-emergence efficacy (herbicidal activity) (Veronica persica [8]; Dosage 320 g/ha): 100%
- VIOTR pre-emergence efficacy (herbicidal activity) (Viola tricolor [9]; Dosage 80 g/ha): 70%
- VIOTR pre-emergence efficacy (herbicidal activity) (Viola tricolor [9]; Dosage 320 g/ha): 100%
